From ChEMBL document CHEMBL1121374, “Analgesic narcotic antagonists. 4. 7-Methyl-N-(cycloalkylmethyl)-3-hydroxymorphinan-6-ones and -isomorphinan-6-ones” (1980)
The source made the active and inactive calls. The calls are words filed in the database; no cut-off is given here.

What was measured:
Rattus norvegicus [1] = assay: Antagonist activity in rat tail flick assay by intraperitoneal administration; format: functional
Rattus norvegicus [2] = species: Rattus norvegicus; assay: Ratio of agonist potency to antagonist potency was determined; format: functional
Mus musculus [3] = assay: Compound was tested for analgesia in mouse writhing assay by subcutaneous administration; format: functional
Rattus norvegicus [4] = assay: Compound was tested for antagonist in rat tail flick assay by subcutaneous administration at dose 33 umol/kg; IA means inactive; format: functional, organism-based
Rattus norvegicus [5] = assay: Compound was tested for antagonist in rat tail flick assay by subcutaneous administration at dose 29 umol/kg; IA means inactive; format: functional, organism-based
Rattus norvegicus [6] = assay: Antagonist activity in rat tail flick assay by subcutaneous administration; format: functional
Rattus norvegicus [7] = assay: Compound was tested for antagonist in rat tail flick assay by intraperitoneal administration at dose 25 umol/kg; IA means inactive; format: functional, organism-based
Mus musculus [8] = assay: Compound was tested for analgesia in mouse writhing assay by subcutaneous administration; IA means inactive; format: functional, organism-based
Rattus norvegicus [9] = assay: Compound was tested for antagonist in rat tail flick assay by subcutaneous administration at dose 27 umol/kg; IA means inactive; format: functional, organism-based
Mus musculus [10] = assay: Compound was tested for analgesia in mouse writhing assay by subcutaneous administration short duration at 5 min; format: functional; settings: sc
[11] = Rattus norvegicus, Tail, ip, read-out: ED50
[12] = Mus musculus, sc, read-out: ED50
[13] = Rattus norvegicus, Tail, sc, read-out: ED50

Compound | ED50 (Rattus norvegicus [1]; [11]) [µmol/kg] | ED50 (Mus musculus [3]; [12]) [µmol/kg] | ED50 (Mus musculus [3]) [µM/kg] | further results
C[C@H]1[C@H](C)C(=O)CC23CCN(CC4CC4)C(Cc4ccc(O)cc42)[C@H]13 (some centres not stated) | 0.35 | 23 |  | Ratio (Rattus norvegicus [2]): 65
COc1ccc2c(c1)C13CCN(C)C(C2)[C@H]1C[C@@H](C)C(=O)C3 (stereo in doubt; 6T a) [listing 1 of 2 here] |  |  |  | ED50 (Rattus norvegicus [4]): inactive
COc1ccc2c(c1)C13CCN(CC4CC4)C(C2)[C@@H]1C[C@H](C)C(=O)C3 (some centres not stated) |  |  | 0.66 | ED50 (Rattus norvegicus [1]): 14.9 µM/kg; Ratio (Rattus norvegicus [2]): 0.04
COc1ccc2c(c1)C13CCN(C)C(C2)[C@H]1[C@H](C)[C@@H](C)C(=O)C3 (some centres not stated) |  | 3.72 |  | ED50 (Rattus norvegicus [5]): inactive
C[C@@H]1C[C@@H]2C3Cc4ccc(O)cc4C2(CCN3C)CC1=O (stereo in doubt; 7T a) |  |  | 0.91 | ED50 (Rattus norvegicus [6]): 1.09 µM/kg
COc1ccc2c(c1)C13CCN(CC4CCC4)C(C2)[C@H]1C[C@@H](C)C(=O)C3 (some centres not stated) |  |  | 20.3 | 
C[C@H]1C[C@H]2C3Cc4ccc(O)cc4C2(CCN3CC2CCC2)CC1=O (stereo in doubt; 13C) [listing 1 of 2 here] |  |  |  | ED50 (Rattus norvegicus [7]): inactive
COc1ccc2c(c1)C13CCN(CC4CC4)C(C2)[C@H]1C[C@@H](C)C(=O)C3.Cl (some centres not stated) |  |  | >40 | ED50 (Rattus norvegicus [1]): 3.19 µM/kg
COc1ccc2c(c1)C13CCN(CC4CCC4)C(C2)[C@@H]1C[C@H](C)C(=O)C3 (some centres not stated) [listing 1 of 2 here] |  |  |  | ED50 (Rattus norvegicus [7]): inactive
C[C@@H]1[C@@H](C)C(=O)CC23CCN(CC4CC4)C(Cc4ccc(O)cc42)[C@@H]13 (some centres not stated) | 1.02 | 4.5 |  | Ratio (Rattus norvegicus [2]): 4.4
C=CCN1CC[C@]23c4c5ccc(O)c4O[C@H]2[C@@H](O)C=C[C@H]3[C@H]1C5 [NALORPHINE] | 2.47 | 3.51 |  | Ratio (Rattus norvegicus [2]): 1.42
C[C@H]1C[C@H]2C3Cc4ccc(O)cc4C2(CCN3CC2CCC2)CC1=O (stereo in doubt; 13C) [listing 2 of 2 here] |  |  | 0.047 | 
COc1ccc2c(c1)C13CCN(C)C(C2)[C@@H]1C[C@H](C)C(=O)C3 (stereo in doubt; 6C) |  |  | 1.72 | ED50 (Rattus norvegicus [6]; [13]): 2.32 µmol/kg
CC[C@H]1[C@H](C)C(=O)CC23CCN(CC4CC4)C(Cc4ccc(OC)cc42)[C@H]13.Cl (some centres not stated) | 15.7 | 8.04 |  | Ratio (Rattus norvegicus [2]): 0.51
C[C@H]1C[C@H]2C3Cc4ccc(O)cc4C2(CCN3CC2CC2)CC1=O (stereo in doubt; 12C) | 7.4 | 3.28 |  | Ratio (Rattus norvegicus [2]): 0.44
CC[C@H]1[C@H](C)C(=O)CC23CCN(C)C(Cc4ccc(OC)cc42)[C@H]13 (some centres not stated) |  | 0.49 |  | ED50 (Rattus norvegicus [6]; [13]): 2.75 µmol/kg
CC[C@@H]1[C@@H](C)C(=O)CC23CCN(CC4CC4)C(Cc4ccc(O)cc42)[C@@H]13 (some centres not stated) | > 25 | > 25 |  | 
CC[C@@H]1[C@@H](C)C(=O)CC23CCN(CC4CCC4)C(Cc4ccc(OC)cc42)[C@@H]13 (some centres not stated) | > 25 | > 25 |  | 
C[C@@H]1C[C@@H]2C3Cc4ccc(O)cc4C2(CCN3CC2CCC2)CC1=O (stereo in doubt; 13T a) |  |  | 0.93 | ED50 (Rattus norvegicus [1]): >24 µM/kg
C[C@@H]1C[C@@H]2C3Cc4ccc(O)cc4C2(CCN3C)CC1=O (stereo in doubt; 7T) |  | 0.75 |  | ED50 (Rattus norvegicus [6]; [13]): 1.33 µmol/kg

Compound | ED50 (Rattus norvegicus [1]; [11]) [µmol/kg] | ED50 (Mus musculus [3]; [12]) [µmol/kg] | ED50 (Mus musculus [3]) [µM/kg] | further results
COc1ccc2c(c1)C13CCN(CC4CC4)C(C2)[C@@H]1[C@@H](C)[C@H](C)C(=O)C3.Cl (some centres not stated) | 12.1 | 2.64 |  | Ratio (Rattus norvegicus [2]): 0.22
COc1ccc2c(c1)C13CCN(CC4CCC4)C(C2)[C@@H]1C[C@H](C)C(=O)C3 (some centres not stated) [listing 2 of 2 here] |  |  | 0.58 | 
COc1ccc2c(c1)C13CCN(C)C(C2)[C@@H]1C[C@H](C)C(=O)C3 (stereo in doubt; 6C a) |  |  | 0.5 | ED50 (Rattus norvegicus [6]): 1.6 µM/kg
COc1ccc2c3c1O[C@H]1C(=O)CC[C@H]4[C@@H](C2)N(C)CC[C@]314 [HYDROCODONE] |  | 2.36 |  | ED50 (Rattus norvegicus [6]; [13]): 5.2 µmol/kg
C[C@H]1C[C@H]2C3Cc4ccc(O)cc4C2(CCN3C)CC1=O (stereo in doubt; 7C a) |  | 0.39 |  | ED50 (Rattus norvegicus [6]): 1.82 µM/kg
C[C@@H]1[C@@H](C)C(=O)CC23CCN(C)C(Cc4ccc(O)cc42)[C@@H]13 (some centres not stated) |  | 0.58 |  | ED50 (Rattus norvegicus [6]; [13]): 0.68 µmol/kg
CC[C@H]1[C@H](C)C(=O)CC23CCN(CC4CC4)C(Cc4ccc(O)cc42)[C@H]13 (some centres not stated) | 2.23 | > 25 |  | 
C[C@H]1[C@H](C)C(=O)CC23CCN(CC4CCC4)C(Cc4ccc(O)cc42)[C@H]13 (some centres not stated) | 5.66 | 2.21 |  | Ratio (Rattus norvegicus [2]): 0.4
COc1ccc2c(c1)C13CCN(CC4CCC4)C(C2)[C@@H]1[C@@H](C)[C@H](C)C(=O)C3 (some centres not stated) | > 25 | 15.8 |  | 
COc1ccc2c(c1)C13CCN(CC4CC4)C(C2)[C@@H]1C[C@H](C)C(=O)C3.Cl (some centres not stated) |  |  | 1.6 | ED50 (Rattus norvegicus [1]): 42.6 µM/kg; Ratio (Rattus norvegicus [2]): 0.04
CC[C@H]1[C@H](C)C(=O)CC23CCN(CC4CCC4)C(Cc4ccc(OC)cc42)[C@H]13 (some centres not stated) | > 24 | 18.7 |  | 
C=CCN1CC[C@]23c4c5ccc(O)c4O[C@H]2C(=O)CC[C@@]3(O)[C@H]1C5 [NALOXONE] |  |  |  | ED50 (Mus musculus [8]): inactive
CC[C@H]1[C@H](C)C(=O)CC23CCN(C)C(Cc4ccc(O)cc42)[C@H]13 (some centres not stated) |  | 0.14 |  | ED50 (Rattus norvegicus [6]; [13]): 1.5 µmol/kg
COc1ccc2c(c1)C13CCN(CC4CC4)C(C2)[C@H]1C[C@@H](C)C(=O)C3 (some centres not stated) | 3.6 | > 25 |  | 
CC[C@@H]1[C@@H](C)C(=O)CC23CCN(C)C(Cc4ccc(OC)cc42)[C@@H]13 (some centres not stated) |  | 7.42 |  | ED50 (Rattus norvegicus [9]): inactive
C[C@H]1C[C@H]2C3Cc4ccc(O)cc4C2(CCN3CC2CC2)CC1=O (stereo in doubt; 12C a) |  |  | 2.4 | ED50 (Rattus norvegicus [1]): 14.4 µM/kg; Ratio (Rattus norvegicus [2]): 0.17
CC[C@@H]1[C@@H](C)C(=O)CC23CCN(CC4CCC4)C(Cc4ccc(O)cc42)[C@@H]13 (some centres not stated) | > 25 | > 25 |  | 
CN1CC[C@]23c4c5ccc(O)c4O[C@H]2[C@@H](O)C=C[C@H]3[C@H]1C5 [MORPHINE] |  |  |  | ED50 (Rattus norvegicus [6]; [13]): 19.3 µmol/kg
C[C@H]1[C@H](C)C(=O)CC23CCN(C)C(Cc4ccc(O)cc42)[C@H]13 (some centres not stated) |  | 0.4 |  | ED50 (Rattus norvegicus [6]; [13]): 12.4 µmol/kg
CN1CC[C@]23c4c5ccc(O)c4O[C@H]2C(=O)CC[C@H]3[C@H]1C5 [HYDROMORPHONE] |  |  |  | ED50 (Rattus norvegicus [6]; [13]): 1.34 µmol/kg

Compound | ED50 (Rattus norvegicus [1]; [11]) [µmol/kg] | ED50 (Mus musculus [3]; [12]) [µmol/kg] | ED50 (Mus musculus [3]) [µM/kg] | further results
COc1ccc2c(c1)C13CCN(CC4CCC4)C(C2)[C@@H]1C[C@H](C)C(=O)C3.Cl (some centres not stated) | > 25 |  | 3.58 | 
C[C@H]1C[C@H]2C3Cc4ccc(O)cc4C2(CCN3C)CC1=O (stereo in doubt; 7C) |  |  | 0.52 | ED50 (Rattus norvegicus [6]): 70 µM/kg
C[C@H]1[C@H]2Cc3ccc(O)cc3[C@]1(C)CCN2CC1CC1 [CYCLAZOCINE] | 0.81 | 0.41 |  | Ratio (Rattus norvegicus [2]): 0.5
C[C@@H]1C[C@@H]2C3Cc4ccc(O)cc4C2(CCN3CC2CC2)CC1=O (stereo in doubt; 12T) | 2.24 | 8.9 |  | Ratio (Rattus norvegicus [2]): 4
CC(C)=CCN1CC[C@]2(C)c3cc(O)ccc3C[C@H]1[C@H]2C [(+)-PENTAZOCINE] | 36.4 | 12.9 |  | Ratio (Rattus norvegicus [2]): 0.36
COc1ccc2c(c1)C13CCN(C)C(C2)[C@H]1C[C@@H](C)C(=O)C3 (stereo in doubt; 6T) |  |  | 5.54 | ED50 (Rattus norvegicus [6]; [13]): > 70 µmol/kg
COc1ccc2c(c1)C13CCN(CC4CCC4)C(C2)[C@H]1C[C@@H](C)C(=O)C3.Cl (some centres not stated) | > 38 |  | 7.31 | 
CC[C@H]1[C@H](C)C(=O)CC23CCN(CC4CCC4)C(Cc4ccc(O)cc42)[C@H]13 (some centres not stated) | 4.84 | 8.19 |  | Ratio (Rattus norvegicus [2]): 1.7
CC[C@@H]1[C@@H](C)C(=O)CC23CCN(C)C(Cc4ccc(O)cc42)[C@@H]13 (some centres not stated) |  | 7.53 |  | ED50 (Rattus norvegicus [6]; [13]): 7.45 µmol/kg
COc1ccc2c(c1)C13CCN(CC4CCC4)C(C2)[C@H]1[C@H](C)[C@@H](C)C(=O)C3 (some centres not stated) | > 25 | > 25 |  | 
COc1ccc2c(c1)C13CCN(C)C(C2)[C@@H]1[C@@H](C)[C@H](C)C(=O)C3 (some centres not stated) |  | 2.16 |  | ED50 (Rattus norvegicus [6]; [13]): 17.9 µmol/kg
COc1ccc2c3c1O[C@H]1[C@@H](O)C=C[C@H]4[C@@H](C2)N(C)CC[C@@]341 [CODEINE] |  | 10.2 |  | ED50 (Rattus norvegicus [6]; [13]): 75 µmol/kg
CC[C@@H]1[C@@H](C)C(=O)CC23CCN(CC4CC4)C(Cc4ccc(OC)cc42)[C@@H]13 (some centres not stated) | > 25 | > 25 |  | 
Oc1ccc2c(c1)[C@@]13CCCC[C@@]1(O)[C@@H](C2)N(CC1CCC1)CC3 [BUTORPHANOL] | 2 | 0.34 |  | Ratio (Rattus norvegicus [2]): 0.17
C[C@H]1C[C@H]2C3Cc4ccc(O)cc4C2(CCN3CC2CCC2)CC1=O (stereo in doubt; 13C a) | > 30 |  | 0.35 | 
COc1ccc2c(c1)C13CCN(C)C(C2)[C@H]1C[C@@H](C)C(=O)C3 (stereo in doubt; 6T a) [listing 2 of 2 here] |  |  | 15.7 | 
C[C@@H]1[C@@H](C)C(=O)CC23CCN(CC4CCC4)C(Cc4ccc(O)cc42)[C@@H]13 (some centres not stated) | > 25 | 0.79 |  | 
C[C@@H]1C[C@@H]2C3Cc4ccc(O)cc4C2(CCN3CC2CCC2)CC1=O (stereo in doubt; 13T) | 13.8 |  | 2.6 | Ratio (Rattus norvegicus [2]): 0.2
COc1ccc2c(c1)C13CCN(CC4CC4)C(C2)[C@H]1[C@H](C)[C@@H](C)C(=O)C3 (some centres not stated) | > 26 | > 26 |  | 
C[C@@H]1C[C@@H]2C3Cc4ccc(O)cc4C2(CCN3CC2CC2)CC1=O (stereo in doubt; 12T a) |  |  |  | ED50 (Rattus norvegicus [1]): 1.18 µM/kg; Ratio (Rattus norvegicus [2]): 1.5; ED50 (Mus musculus [10]): 1.77 µmol/kg
